Measured values as given in PubChem BioAssay AID330 (DTP/NCI, 2004).
Values joined by “and” are separate entries in the source; they are usually repeats but may differ in a detail not shown here. Equal entries are not always repeated. Toxic doses and inconclusive results are not listed.

Test system: P388 leukemia ip, CD2F1 mice, survival T/C
Assay: NCI In Vivo Anticancer Drug Screen. Data for tumor model P388 Leukemia (intraperitoneal) in CD2F1 (CDF1) mice
Conditions: endpoint: median survival time, higher = longer survival
How it was run: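 Mice carrying the transplanted tumor received test compound or vehicle. Survival was recorded in each group, and the value is the treated-group measurement divided by that of the vehicle-treated control group.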

[1] = dose: 50.0 mg/kg/injection, schedule: Q01DX005 (ip), vehicle: Klucel (hydroxypropylcellulose) (HPC)
[2] = dose: 100.0 mg/kg/injection, schedule: Q01DX005 (ip), vehicle: Klucel (hydroxypropylcellulose) (HPC)
[3] = dose: 200.0 mg/kg/injection, schedule: Q01DX005 (ip), vehicle: Klucel (hydroxypropylcellulose) (HPC)
[4] = dose: 100.0 mg/kg/injection, schedule: Q04DX003 (ip), vehicle: saline with Tween-80
[5] = dose: 200.0 mg/kg/injection, schedule: Q04DX003 (ip), vehicle: saline with Tween-80
[6] = dose: 400.0 mg/kg/injection, schedule: Q04DX003 (ip), vehicle: saline with Tween-80

Cc1cc(-c2ccc(N=Nc3c(C)nn(-c4ccc(S(=O)(=O)O)cc4)c3O)c(C)c2)ccc1N=Nc1ccc(O)c(C(=O)O)c1
T/C (dose: 6.25 mg/kg/injection, schedule: Q01DX009 (ip), vehicle: saline with Tween-80): 100 % of control
T/C (dose: 12.5 mg/kg/injection, schedule: Q01DX009 (ip), vehicle: saline with Tween-80): 101 % of control
T/C (dose: 25.0 mg/kg/injection, schedule: Q01DX009 (ip), vehicle: saline with Tween-80): 93 % of control

CCC/C(=N\O)S(=O)(=O)c1ccc(NN=O)nc1
T/C (dose: 3.12 mg/kg/injection, schedule: Q01DX009 (ip), vehicle: saline): 107 % of control
T/C (dose: 6.25 mg/kg/injection, schedule: Q01DX009 (ip), vehicle: saline): 108 % of control and 110 % of control
T/C (dose: 12.5 mg/kg/injection, schedule: Q01DX009 (ip), vehicle: saline): 116 % of control and 118 % of control
T/C (dose: 25.0 mg/kg/injection, schedule: Q01DX009 (ip), vehicle: saline): 150 % of control

O=C(Oc1ccc[nH]c1=O)C1CCC1
T/C [1]: 102 % of control and 92 % of control
T/C [2]: 102 % of control and 90 % of control
T/C [3]: 100 % of control and 91 % of control
T/C (dose: 400.0 mg/kg/injection, schedule: Q01DX005 (ip), vehicle: Klucel (hydroxypropylcellulose) (HPC)): 100 % of control and 103 % of control

Cc1cc(C)c(OP(=S)(Oc2c(C)cc(C)cc2C)Oc2c(C)cc(C)cc2C)c(C)c1
T/C (dose: 100.0 mg/kg/injection, schedule: Q04DX002 (ip), vehicle: Klucel (hydroxypropylcellulose) (HPC)): 87 % of control
T/C (dose: 200.0 mg/kg/injection, schedule: Q04DX002 (ip), vehicle: Klucel (hydroxypropylcellulose) (HPC)): 86 % of control

c1ccc2sc(SN3CCOCC3)nc2c1
T/C [4]: 87 % of control
T/C [5]: 100 % of control
T/C [6]: 95 % of control

CS/C(=N\N=C(/C)c1ccccn1)N1CCN(c2ccccn2)CC1
T/C [4]: 98 % of control
T/C [5]: 99 % of control
T/C [6]: 96 % of control

CCCCOC(=O)C1ON(c2ccc(C=O)cc2)C(c2ccc([N+](=O)[O-])cc2)C1C(=O)OCCCC (configuration not stated)
T/C [1]: 97 % of control
T/C [2]: 94 % of control
T/C [3]: 91 % of control

BrC1c2ccccc2-c2nc3ccccc3nc21 (configuration not stated)
T/C (dose: 12.5 mg/kg/injection, schedule: Q01DX005 (ip), vehicle: Klucel (hydroxypropylcellulose) (HPC)): 112 % of control
T/C (dose: 25.0 mg/kg/injection, schedule: Q01DX005 (ip), vehicle: Klucel (hydroxypropylcellulose) (HPC)): 99 % of control
T/C [1]: 103 % of control and 115 % of control

BrC1=NOC2c3cccc4cccc(c34)C12 (configuration not stated)
T/C (dose: 60.0 mg/kg/injection, schedule: Q01DX005 (ip), vehicle: saline with Tween-80): 108 % of control
T/C (dose: 120.0 mg/kg/injection, schedule: Q01DX005 (ip), vehicle: saline with Tween-80): 106 % of control
T/C (dose: 240.0 mg/kg/injection, schedule: Q01DX005 (ip), vehicle: saline with Tween-80): 105 % of control

CSc1ccc(SC)c2c1C(=O)c1c(SC)ccc(SC)c1C2=O
T/C (dose: 50.0 mg/kg/injection, schedule: Q01DX009 (ip), vehicle: saline with Tween-80): 93 % of control
T/C (dose: 100.0 mg/kg/injection, schedule: Q01DX009 (ip), vehicle: saline with Tween-80): 96 % of control

CCOC(=O)c1ccc(N(CCC2CO2)S(=O)(=O)c2ccc(C)cc2)cc1 (configuration not stated)
T/C (dose: 25.0 mg/kg/injection, schedule: Q01DX009 (ip), vehicle: Klucel (hydroxypropylcellulose) (HPC)): 94 % of control
T/C (dose: 50.0 mg/kg/injection, schedule: Q01DX009 (ip), vehicle: Klucel (hydroxypropylcellulose) (HPC)): 93 % of control
T/C (dose: 100.0 mg/kg/injection, schedule: Q01DX009 (ip), vehicle: Klucel (hydroxypropylcellulose) (HPC)): 98 % of control
T/C (dose: 200.0 mg/kg/injection, schedule: Q01DX009 (ip), vehicle: Klucel (hydroxypropylcellulose) (HPC)): 94 % of control

COC(=O)C1=C(C(=O)OC)P2(C)(C)ON(c3ccccc3)C(C(=O)c3ccccc3)N2C1(c1ccccc1)c1ccccc1 (configuration not stated)
T/C [1]: 100 % of control
T/C [2]: 93 % of control
T/C [3]: 98 % of control

CSC(/C=C1\C=CC=CN1Cc1ccccc1)=NC#N
T/C (dose: 25.0 mg/kg/injection, schedule: Q04DX002 (ip), vehicle: saline with Tween-80): 100 % of control
T/C (dose: 50.0 mg/kg/injection, schedule: Q04DX002 (ip), vehicle: saline with Tween-80): 92 % of control
T/C (dose: 100.0 mg/kg/injection, schedule: Q04DX002 (ip), vehicle: saline with Tween-80): 99 % of control

CC[C@H]1C[C@H](Cc2ccccc2)CC[C@H]1N1CCCC1
T/C (dose: 50.0 mg/kg/injection, schedule: Q01DX005 (ip), vehicle: saline with Tween-80): 101 % of control
T/C (dose: 100.0 mg/kg/injection, schedule: Q01DX005 (ip), vehicle: saline with Tween-80): 104 % of control
